Assay results taken from patent US11846638B2, “Methods for detecting Na/K-ATPase-mediated Src signaling for diagnosis and prognosis of cancer” (Marshall University Research Corporation, priority 2017, dated 2023).
“Also recorded” adds a separate entry of the source.

Experiments:
[1] = test system: AAC-19 and Y260A cells; assay: Extracellular acidification rate (ECAR), Seahorse, in AAC-19 and Y260A cells; type: cell-based, porcine; details: for ECAR after oligomycin (maximal capacity of glycolysis): after addition of glucose
Description: Bioenergetics. Properties of cellular bioenergetics were characterized using Seahorse XFp Extracellular Flux Analyzer by measuring oxygen consumption rate (OCR) and extracellular acidification rate (ECAR) following the guidelines provided by the manufacturer. Prior to the start of Seahorse assay, optimal FCCP concentration for each cell line was determined by titration studies. Unless indicated otherwise, 10,000 cells per well were seeded with culture medium. Bicarbonate-free medium (Agilent Technologies) with different substrates (10 mM glucose, 2 mM glutamine and 1 mM pyruvate for Cell Mito Stress Test assays; 2 mM glutamine for Glycolysis Stress Test assays) was replaced one hour prior to the assay. Baseline OCR and ECAR rates were measured three times before various inhibitors, stimulants, substrates, or compounds were added through the drug delivery ports. In the PP2 study, cells were pretreated with 5 μM PP2 for 4 h and then analyzed.

[2] = test system: AAC-19 and Y260A cells; assay: Cellular ATP content (CellTiter-Glo) under glycolysis inhibition; type: cell-based, porcine; details: Y260A cells compared to AAC-19 cells; 2-DG 45 minutes in serum-free DMEM
Description: (§1) Biochemical measurement of ATP and lactate. ATP measurements were performed using CellTiter-Glo Luminescent Cell Viability Assay kit. 10,000 cells per well were cultured in 96-well culture plate. After treatment with 2-DG at indicated concentrations in serum-free DMEM for 45 minutes, assay reagents were reconstituted and added into culture plate. Luminescent counts of the reactants were determined from an opaque-walled 96-well plate with a microplate reader. Lactate measurement was done by colorimetric methods as described by previously. In PP2 study, culture medium containing serum and 5 μM PP2 was replaced in culture dish and collected after 4 hours for measurements.

[3] = test system: α1 Na/K-ATPase Y260 phosphorylation; assay: Y260 phosphorylation of α1 Na/K-ATPase in LLC-PK1 cells (immunoblot); type: cell-based, porcine
Description: (§2) Cell culture and cell line generation. All cell lines were purchased from and maintained according to ATCC (Manassas, Va.). LLC-PK1 was serum starved before being used for signaling experiments. AAC-19, Y260A and DU145, A4-7 cell lines were cultured in the presence of 0.5% and 1% serum respectively for 24 hours before being used for the signaling experiments. LLC-PK1 cells were transfected (Lipofectamine 2000) with pEYFP-C1 vector containing α1 CD2, α2 CD2 or pEYFP-C1 empty vector. After verifying YFP expression visually, the cells were selected with 1 mg/ml G418 for one week. G418 resistant clones were selected and expanded. Cells were then cultured without G418 for at least three generations before being used for experiments. CD2N and CD2C cells were generated in similar manner. Y260A cells were generated by transfecting PY-17 cells with pRC/CMV-α1 AACm1 vector harboring mutation at Y260 and selected with ouabain (3 μM). Ouabain-resistant clones were isolated and expanded into stable cell lines. The cells were cultured for at least 3 generations without ouabain before being used for any experiment. DU-P1, A4-7 and A4-3 cell lines were generated by transfecting DU145 cells with a α1 Na/K-ATPase-specific siRNA containing vector and selecting with Puromycin as described above. All constructs were verified by DNA sequencing.
(§3) Immunoblot, Immunoprecipitation and Immunostaining Analysis. Immunoblot assays were performed as described previously. Intensity of bands were quantified with ImageJ software (NIH). Immunoprecipitation was performed by adding 5 μg of anti-Src (Millipore Cat #05-184) antibody to 500 μg of cell lysate (1 μg/μl concentration) or 8 μg of anti-α1 Na/K-ATPase antibody (Millipore Cat #06-520) to 800 μg of cell lysate ([…] concentration). Precipitated proteins were then analyzed as described previously. For immunostaining antibodies used—anti-α1 Na/K-ATPase antibody (Millipore Cat #05-369) and Alexa Fluor 488-conjugated anti-mouse secondary antibody.

[4] = test system: α1 Na/K-ATPase Y10 phosphorylation; assay: Y10 phosphorylation of α1 Na/K-ATPase in LLC-PK1 cells (immunoblot); type: cell-based, porcine
Description: as §2, with “DU-P1, A4-7 and A4-3 cell lines were generated by transfecting DU145 cells with a α1 Na/K-ATPase-specific siRNA containing vector and selecting with Puromycin as described above. All constructs were verified by DNA sequencing.” left out
(§4) Immunoblot, Immunoprecipitation and Immunostaining Analysis. […] Intensity of bands were quantified with ImageJ software (NIH). […] Precipitated proteins were then analyzed as described previously. […]

[5] = test system: ERK1/2; assay: ERK activation (pERK1/2/ERK1/2) by Western blot in AAC-19 and Y260A cells; type: cell-based, porcine; details: for ERK phosphorylation (pERK1/2/ERK1/2): different concentrations of ouabain for 10 minutes
Description: as §2, §3

[6] = test system: Y260A cells; assay: Lactate production in culture medium of Y260A cells; type: cell-based, porcine; details: 5 μM PP2 for 4 h
Description: as §1

[7] = test system: Y260A cells; assay: qPCR of upregulated metabolic genes in Y260A cells; type: cell-based, porcine; details: 5 μM PP2 overnight
Source text: RNA Extraction, cDNA Synthesis and Quantitative PCR. Total RNA was isolated with the QIAGEN RNeasy Mini Kit. The same amount of total RNA was used for synthesizing first-stand cDNA with the SuperScript III First-Stand Synthesis SuperMix for qRT-PCR (ThermoFisher). The cDNA from each sample was used as a template for the quantitative PCR (Syber green) with Roche LightCycler® 480 Real-Time PCR System. All primers were synthesized by Integrated DNA Technologies (IDT). β-actin was used as internal control.

[8] = test system: A4-7 cells; assay: Lactate production in medium of A4-7 cells; type: cell-based, human; details: 5 μM PP2 for 4 h
Description: as §1

[9] = test system: A4-7 cells; assay: Cell proliferation of A4-7 cells; type: cell-based, human; details: PP2, 48 hours
Description: Cell growth assay and MTT assay. Cell growth assay and MTT assay were performed as previously described.

[10] = test system: Src; assay: Src activation (pY418Src/c-Src) by Western blot in LLC-PK1, AAC-19 and Y260A cells; type: cell-based, porcine; details: for Src phosphorylation (pY418Src/c-Src): different concentrations of ouabain for 10 minutes
Description: as §2, §3

[11] = test system: Akt; assay: Akt activation (pS473Akt/Akt) by Western blot in AAC-19 and Y260A cells; type: cell-based, porcine; details: different concentrations of ouabain for 10 minutes
Description: as §2, with “DU-P1, A4-7 and A4-3 cell lines were generated by transfecting DU145 cells with a α1 Na/K-ATPase-specific siRNA containing vector and selecting with Puromycin as described above. All constructs were verified by DNA sequencing.” left out
as §4

[12] = test system: EGFR; assay: EGFR phosphorylation at Y845 in AAC-19 and Y260A cells; type: cell-based, porcine; details: AAC-19 cells; different concentrations of EGF
Description: as §2, with “DU-P1, A4-7 and A4-3 cell lines were generated by transfecting DU145 cells with a α1 Na/K-ATPase-specific siRNA containing vector and selecting with Puromycin as described above. All constructs were verified by DNA sequencing.” left out
as §4

[13] = test system: Src; assay: Src activation (pY418 Src/c-Src) by Western blot in DU-P1 and A4-7 cells; type: cell-based, human; details: different concentrations of EGF for 5 minutes
Description: as §2, with “DU-P1, A4-7 and A4-3 cell lines were generated by transfecting DU145 cells with a α1 Na/K-ATPase-specific siRNA containing vector and selecting with Puromycin as described above. All constructs were verified by DNA sequencing.” left out
as §4

[14] = test system: EGFR; assay: EGFR activation (pY845 EGFR/EGFR) by Western blot in DU-P1 and A4-7 cells; type: cell-based, human; details: different concentrations of EGF for 5 minutes
Description: as §2, with “DU-P1, A4-7 and A4-3 cell lines were generated by transfecting DU145 cells with a α1 Na/K-ATPase-specific siRNA containing vector and selecting with Puromycin as described above. All constructs were verified by DNA sequencing.” left out
as §4

O=CC[C@@H](O)[C@H](O)[C@H](O)CO [2-DG, 2-deoxyglucose]
ECAR after 2-DG ([1]; AAC-19 and Y260A cells, after glucose and oligomycin): completely reversed the increase
cellular ATP content in response to inhibition of glycolysis [2]: much more sensitive

CC(C)(C)n1nc(-c2ccc(Cl)cc2)c2c(N)ncnc21 [PP2]
Y260 phosphorylation ([3]; PP2 5 μM, 30 minutes pretreatment): attenuated
Y10 phosphorylation ([4]; PP2 5 μM, 30 minutes): Neither inhibitor nor knockout of Src kinase affected
basal ERK activities (increased in Y260A cells) ([5]; Y260A cells, PP2): sensitive to PP2; also recorded: sensitive to Src inhibitor
lactate production [6]: sufficient to reduce; also recorded: blocked the increase
glycolysis rate (ECAR) ([1]; Y260A cells, 5 μM PP2 for 4 h): sufficient to reduce
mRNA level of upregulated glycolytic/metabolic genes [7]: restored the mRNA level of most of these upregulated genes; also recorded: reduced the expression
lactate production (increased in A4-7 cells) [8]: sensitive to Src inhibition
cell proliferation rate [9]: reversed; also recorded: inhibition

CC[C@H]1/C=C/C=C/C[C@@H](C)[C@H](O)[C@@](C)(O)C(=O)[C@@H](C)[C@H](O)[C@@H](C)C(=O)[C@@H](C)[C@H](O)[C@@H](C)/C=C/C(=O)O[C@@H]2[C@H](C)[C@H](CC1)O[C@]1(CC[C@H](C)[C@H](C[C@@H](C)O)O1)[C@H]2C [oligomycin]
ECAR after oligomycin (maximal capacity of glycolysis) ([1]; AAC-19 cells): further increase
ECAR after oligomycin (maximal capacity of glycolysis) ([1]; Y260A cells): not in Y260A cells

C[C@@H]1O[C@@H](O[C@H]2C[C@@H](O)[C@]3(CO)[C@H]4[C@H](O)C[C@]5(C)[C@@H](C6=CC(=O)OC6)CC[C@]5(O)[C@@H]4CC[C@]3(O)C2)[C@H](O)[C@H](O)[C@H]1O [ouabain]
Y260 phosphorylation ([3]; ouabain, function of time and concentration): increased
Y10 phosphorylation ([4]; ouabain): no effect
Src phosphorylation (pY418Src/c-Src) ([10]; AAC-19 cells): stimulated
Src phosphorylation (pY418Src/c-Src) ([10]; Y260A mutant cells): abolished
ERK phosphorylation (pERK1/2/ERK1/2) ([5]; AAC-19 cells): stimulated
ERK phosphorylation (pERK1/2/ERK1/2) ([5]; Y260A mutant cells): abolished
ouabain-induced ERK activation (pERK1/2/ERK 1/2) ([5]; Y260A mutant clone 24 cells): failed to respond
Akt phosphorylation (pS473Akt/Akt) ([11]; AAC-19 cells): stimulated
Akt phosphorylation (pS473Akt/Akt) ([11]; Y260A mutant cells): abolished

EGF: recombinant EGF, stimulates EGFR/Src signaling
Y260 phosphorylation of Na/K-ATPase ([3]; recombinant EGF, time and dose): time- and dose-dependent stimulation
Src kinase activity ([10]; AAC-19 cells, different concentrations of EGF): stimulated
Src phosphorylation at Y418 ([10]; LLC-PK1 cells, recombinant EGF, time and dose): time- and dose-dependent stimulation
phosphorylation of EGFR at Y845 [12]: stimulated
Src activation (pY418 Src/c-Src) ([13]; A4-7 cells): not in A4-7 cells
Src activation (pY418 Src/c-Src) ([13]; DU-P1 cells): able to stimulate
Y845 phosphorylation of EGFR ([14]; A4-7 cells): not in A4-7 cells
Y845 phosphorylation of EGFR ([14]; DU-P1 cells): able to stimulate
